Experimental data reported in patent publication US4396606A, “Novel polypeptide analgesics” (Addiction Research Foundation, priority 1979, dated 1983).
Read-outs that look alike come from different tables or passages of the source.

Legend:
[1] = tested on: guinea pig ileum myenteric plexus-longitudinal muscle preparation; test: guinea pig ileum myenteric plexus-longitudinal muscle preparation bioassay; type: cell-based; details: for IC50: inhibition of electrically stimulated twitch, geometric mean of several muscle strips
Text: Starting material was 100 g MSH concentrate, the second oxycellulose adsorbate in commercial ACTH production from procine pituitary glands (Schally et al (1962) Endocrinology 71, 164). The initial steps, with 25 g batches, have been described in Lowney et al (1979) Life Sci. 24, 2377: extraction and back-extraction with butanol; separation from β-endorphin on Bio-Gel P6; preparative reversed-phase HPLC on C18 columns, first with a methanol gradient in trifluoroacetic acid (TFA), then with an acetonitrile gradient in Tris buffer at neutrality, followed by elution of the active material with TFA. Every step was monitored by assay on the guinea pig ileum myenteric plexus-longitudinal muscle preparation. Kosterlitz & Waterfled (1975) Ann. Rev. Pharmacol. 15, 29; Schulz & Goldstein (1973) Brit. J. Pharmacol. 48, 655.
(§1) The guinea pig ileum myenteric plexus-longitudinal muscle preparation was used as described in Kosterlitz et al, supra, and Schulz & Goldstein, supra. […] Geometric means of IC50 values from several muscle strips were obtained, with standard errors in log units. Kd values for naloxone as an antagonist were determined from the ratio of IC50 values in the presence and absence of a fixed naloxone concentration. The mouse vas deferens was used as described in Hughes at al (1975) Brit. J. Pharmacol. 53, 371. IC50 and naloxone Kd values were determined as above.
(§2) Effects of dynorphin-(1-13) in two bioassays. […] Naloxone Kd is the apparent dissociation constant of the antagonist, computed from the equation Kd =[…]/(D.R.-1), derived from the mass law for competitive antagonism, where C=concentration of naloxone (here 100 nM), and D.R.=dose ratio of agonist, the ratio of IC50 doses in the presence and absence of the antagonist. The same procedures were followed with the mouse vas deferens. IC50 values are geometric means, with standard errors in log units, number of tissue preparations in parentheses. Kd determinations were based on four tissue preparations. RX-1 is des-arg^6 -dynorphin-(1-13); RS-2 has gly^6 insertion in dynorphin-(1-13).

[2] = tested on: mouse vas deferens; test: mouse vas deferens bioassay; type: cell-based; details: for Potency in mouse vas deferens / potency in guinea pig ileum: ratio of potencies in the two bioassays; for IC50: inhibition of electrically stimulated twitch, geometric mean
Experimental: as §1, §2

[3] = target: rat brain membranes; test: radioreceptor binding assay; details: for IC50: 1 nM radioligand, 1 h at 23°
Experimental: The radioreceptor binding assay used well washed rat brain membranes that had been incubated for 30 min at 37° with 100 mM NaCl to remove bound endogenous ligands. Blume (1978) Proc. Natl. Acad. Sci. 75, 1713. Several radioligands (1 nM final concentration) and competing ligands were tested. Competing ligands were added to the membrane suspension in Tris buffer, pH 7.4 at 23°, and radioligand was added immediately thereafter. Assay volume was 500 μl. After incubation (1 h, 23°), the mixture was chilled, filtered, washed twice, and counted.
Washed membranes from rat brain homogenate, 1 h incubation at 23°. Data are IC50 values (nM) from complete log dose-inhibition curves for inhibition of stereospecific binding of the various radioligands. […] DADLE=D-ala^2 -D-leu^5 -enkephalin. DHM=dihydromorphine.

[4] = treatment with cyanogen bromide
[5] = tested on: antiserum to dynorphin (1-13)-thyroglobulin conjugate; test: dynorphin radioimmunoassay; type: binding, rabbit
Text: The subject dynorphin was used for the development of immunoassays, illustrated particularly by a radioimmunoassay. For carrying out the immunoassay, it is necessary to prepare antigens which specifically recognize the oligopeptide, in this case dynorphin. To prepare antigen conjugates, thyroglobulin was conjugated to synthetic dynorphin (1-13). The procedure for preparing the antigen conjugate, injecting the antigen conjugate into animals and isolating the antisera is described as follows.
Synthetic dynorphin (1-13) (3.25 μmoles, 5.2 mg) was dissolved in 2 ml of 100 mM sodium phosphate buffer at neutrality. To the mixture was added with agitation 10^5 cpm of ^125 I-dynorphin to serve as a tracer. After addition of the tracer, 26 mg of thyroglobulin (bovine type 1, Sigma) was added and the mixture cooled in an ice-bath after the thyroglobulin dissolved. A 1:100 dilution with cold water of glutaraldehyde (Sigma, Grade 1, 25% aqueous solution) (1 ml) was added dropwise with stirring in a cold room at 4° and agitation continued for 30 min., followed by warming to room temperature and continuing the stirring for 3 hrs.
Based on the coupling efficiency calculated from the cpm of the dialysis bag residue, after lyophilizing, sufficient of the conjugate was employed to provide 50-100 μg of coupled oligopeptide per rabbit. For six rabbits, the dry material was added to 4 ml of 0.9% NaCl, followed by 4 ml of Freund's incomplete adjuvant. The mixture was uniformly dispersed by drawing up and down in a syringe and needle for 30 mins., the mixture divided into six aliquots and approximately 10 to 12 interdermal injections made in a shaved New Zealand White X San Juan hybrid rabbit. Booster injections were made at two week intervals, with a bleeding taken 10 days after the fourth booster shot, 50 ml of blood being removed from the ear artery, allowed to clot, the serum removed and stored frozen.
In small borosilicate tubes was added 25 μl dynorphin (equimolar to Na ^125 I), 50 μl Na ^125 I, and 20 μl chloramine-T and the mixture allowed to react at room temperature for 30-45 mins. The reaction was terminated by adding 100 μl of sodium metabisulfite. After washing a Sephadex G-15 column (1.2×35 cm) with 0.25 M acetic acid and 0.1% bovine serum albumin, the reaction mixture was added and eluted with the same solvent, collecting 1 ml fractions at a rate of 0.3 ml/min, collecting a total of 50 fractions.
Antiserum: A 1:10 dilution of the antiserum in 50 mM sodium phosphate buffer, pH7.4, containing 50 mM NaCl was diluted 1:10^4 with buffer B;
Dynorphin (1-13) standard: Standards were prepared by taking 10 μl of a 10 mM stock solution in water and adding 990 μl of methanolic HCl to make a […] dynorphin solution followed by 1:100 dilutions to provide the desired series.
^125 I-dynorphin (1-13) trace: The trace stored in 0.25 M acetic acid containing 0.1% BSA was diluted to about 5,000 cpm/100 μl with buffer B.
The procedure for the assay was as follows: All solutions were in ice at the outset and all operations were carried out in ice. In a […] borosilicate glass tube was added in the following order 100 μl of dynorphin (1-13) standard or test sample in methanolic HCl; 100 μl of the antiserum dilution; and 100 μl of the trace, followed by incubation at 0°-4° for 24 hrs. Incubation was terminated with a charcoal mixture prepared by mixing 3 g Norit A, 0.3 g dextran, 15 ml horse serum and the mixture brought to 100 ml with buffer A and mixed for 10 min in a cold room before use. To each incubation tube was added 1 ml of a charcoal mixture, the mixture vortexed followed by incubation for 5 min in a cold room and then centifuged at 5000×g for 15 min in a Beckman Model J6B (4200 rpm). To a 13×100 mm borosilicate glass tube was transferred 850 μl of the supernatant and the tube counted for 5 min in a gamma counter.

[6] = ^a = unusually shallow slope, read-out: IC50 for inhibition of stereospecific binding, radioligand 3H-DADLE
[7] = ^a = unusually shallow slope, read-out: IC50 for inhibition of stereospecific binding, radioligand 3H-DHM

βc -endorphin [reference compound]
IC50 [1]: 34 nM | Potency in mouse vas deferens / potency in guinea pig ileum [2]: 1.5 | IC50 [3, 6]: 2.1 nM | IC50 [3, 7]: 1.8 nM

H-tyr-gly-gly-phe-leu-arg-arg-ile-arg-pro-lys-leu-lys-OH [Dynorphin-(1-13)]
potency relative to leu-enkephalin ([1]; guinea pig ileum test): about 1000 x | potency relative to normorphine ([1]; guinea pig ileum test): about 350 x | potency relative to β-endorphin ([1]; guinea pig ileum test): about 30 x | IC50 [1]: 0.63 nM | persistence in the guinea pig ileum test ([1]; unlike β-endorphin): long persistence | resistance to treatment with cyanogen bromide [4]: relatively resistant | IC50 [2]: 7.5 nM | Potency in mouse vas deferens / potency in guinea pig ileum [2]: 0.08 | IC50 [3, 6]: 43 nM | IC50 [3, 7]: 16 nM | B/Bo ([5]; 1 × 10^-13 moles dynorphin per assay tube): 15 | B/Bo ([5]; 1 × 10^-14 moles dynorphin per assay tube): 45 | B/Bo ([5]; 1 × 10^-15 moles dynorphin per assay tube): 85 | B/Bo ([5]; 1 × 10^-16 moles dynorphin per assay tube): 100 | B/Bo ([5]; 5 × 10^-13 moles dynorphin per assay tube): 5 | B/Bo ([5]; 5 × 10^-14 moles dynorphin per assay tube): 30 | B/Bo ([5]; 5 × 10^-15 moles dynorphin per assay tube): 75 | B/Bo ([5]; 5 × 10^-16 moles dynorphin per assay tube): 100

C=CCN1CC[C@]23CCCC[C@H]2[C@H]1Cc1ccc(O)cc13 [levallorphan]
displacement of radioligand (stereospecific saturable binding) ([3]; 1 μM final concentration): about 70 % of total binding

Oc1ccc2c3c1O[C@H]1[C@@H](O)C=C[C@H]4[C@@H](C2)NCC[C@@]341 [Normorphine]
IC50 ([1]; Cavia porcellus): 120 nM | IC50 ([2]; Mus musculus): 230 nM | IC50 [3, 7]: 5 nM | IC50 ([3]; with Na, read-out: IC50 for inhibition of stereospecific binding, radioligand 3H-naloxone +Na): 260 nM | IC50 ([3]; without Na, read-out: IC50 for inhibition of stereospecific binding, radioligand 3H-naloxone -Na): 21 nM

C=CCN1CC[C@@]23CCCC[C@@H]2[C@@H]1Cc1ccc(O)cc13 [dextrallorphan]
effect on radioligand binding ([3]; 1 μM competing ligand): without effect
